Earlier results in patent US20260276655A1, “BIOMARKERS OF AMYOTROPHIC LATERAL SCLEROSIS AND USES THEREOF” (The Methodist Hospital, priority 2023, published 2026).

Assays:
[1] = normal physiological conditions
ALS patients = conditions: administered to ALS patients

Compound	half-life [1]	outcome of phase 3 clinical trial (ALS patients)
CCCCCC(O)/C=C/C=O (centres unmarked) [4-HNE, 4-hydroxynonenal]	less than 2 minutes	–
CO/N=C(\C(=O)N[C@@H]1C(=O)N2C(C(=O)O)=C(CSc3nc(=O)c(=O)[nH]n3C)CS[C@H]12)c1csc(N)n1 [ceftriaxone, (6R,7R)-7-[[(2Z)-2-(2-amino-1,3-thiazol-4-yl)-2-methoxyiminoacetyl]amino]-3-[(2-methyl-5,6-dioxo-1H-1,2,4-triazin-3-yl)sulfanylmethyl]-8-ox o-5-thia-1-azabicyclo[4.2.0]oct-2-ene-2-carboxylic acid]	–	failed
